According to US12528837B2, “Aryl substituted polymyxin derivatives” (priority 2018, dated 2026):
Converted amounts (≈) assume the structure as drawn. Like-named read-outs stand apart in the source and are kept apart here. Where a SMILES comes first, the peptide text is derived from it. Bridges are numbered along the chain shown (N, C = ends). [ ]: non-standard residue; d: D form. The star is where a group is joined. X6 = CC(C)Cc1cccc([C@@H](CN)CC(=O)*)c1; X3 = CC(C)c1cccc([C@@H](CN)CC(=O)*)c1; X9 = CC(C)c1cccc([C@H](CN)CC(=O)*)c1; X8 = NC[C@@H](CC(=O)*)Cc1cccc(Cl)c1; X5 = NC[C@H](CC(=O)*)c1ccc(Cl)cc1; Dab = NCC[C@H](N)C(=O)O; Abu = CC[C@H](N)C(=O)O; Dap = NC[C@H](N)C(=O)O

Experiments:
K. pneumoniae ATCC 13822 = type: cell-based
Procedure: (§1) The inoculum was prepared by making a direct suspension of isolated colonies (selected from an 18-24 hour Mueller-Hinton agar plate) adjusted to the 0.5 McFarland standard. […] The assays were performed in duplicate. […] The MIC values are quoted in μg/mL.

P. aeruginosa ATCC 27853 = type: cell-based
Procedure: as §1

E. coli ATCC 25922 = type: cell-based
Procedure: as §1

[1] = system: A. baumannii ATCC BAA-747; type: cell-based
Procedure: as §1

A. baumannii NCTC 13424 = type: cell-based
Procedure: as §1

[2] = Kidney drug level after subcutaneous dose in mouse; type: in vivo; settings: mouse, in vivo
Summary of the method: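 Mice were euthanised four hours after subcutaneous dosing. Both kidneys were trimmed, weighed, snap-frozen, then homogenised with zirconium oxide beads. After centrifugation (13,000 rpm, 6 °C, 10 min), supernatants were analysed by LC-MS-MS.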

HK-2 cells = assay: In vitro renal cell toxicity assay (HK-2); type: cell-based
Summary of the method: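 HK-2 cells seeded 7,500/well, adhered overnight, then exposed to compound for 24 h at 37° C, 5% CO2, with 5% water and 0.5% DMSO. Background-subtracted, vehicle-normalised dose-response fitted with bottom fixed at zero; IC50 reported relative to PMB in the same run, median where repeated.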

E. coli CA58 = type: cell-based
Summary of the method: (§2)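 First, isolated colonies from an 18-24 hour Mueller-Hinton plate were suspended and standardised to 0.5 McFarland. Testing was then carried out in duplicate. For repeatedly tested compounds the reported MIC, expressed in μg/mL, is the median result.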

P. aeruginosa CCUG 59347 = type: cell-based
Summary of the method: as §2

K. pneumoniae CA64 = type: cell-based
Summary of the method: as §2

[3] = Renal toxicity in mice, separate experiment Example 17 vs PMB; type: in vivo, mouse; settings: sc 25 mg free base/kg, four doses at 8 hr intervals
Procedure: After the fourth dose animals were transferred into individual metabolic cages and urine collected for 24 hours for determination of urinary biomarkers. After collecting urine mice were euthanised and the kidneys harvested for histopathology.
In a separate experiment Example 17 was compared with PMB.

[4] = cation-adjusted Mueller-Hinton Broth, 18-20 h, 35° C.

| MIC K. pneumoniae ATCC 13822 (K. pneumoniae ATCC 13822; ATCC 13822) [µg/mL] | MIC P. aeruginosa ATCC 27853 (P. aeruginosa ATCC 27853; ATCC 27853) [µg/mL] | MIC E. coli ATCC 25922 (E. coli ATCC 25922; ATCC 25922) [µg/mL] | MIC A. baumannii ATCC BAA-747 ([1]; ATCC BAA-747) [µg/mL] | MIC A. baumannii NCTC 13424 (A. baumannii NCTC 13424; NCTC 13424) [µg/mL] | tissue level at time at 4 h ([2]; sc, 17.2 mg/kg) [ng/g] | MIC E. coli CA58 (E. coli CA58; CA58) [µg/mL] | MIC P. aeruginosa CCUG 59347 (P. aeruginosa CCUG 59347; CCUG 59347) [µg/mL] | MIC K. pneumoniae CA64 (K. pneumoniae CA64; CA64) [µg/mL] | SMILES | HK-2 rel to PMB (HK-2 cells) | MIC A. baumannii ATCC BAA-747 [1, 4] [µg/mL] | MIC A. baumannii NCTC 13424 (A. baumannii NCTC 13424; [4]) [µg/mL] | MIC E. coli CA58 (E. coli CA58; [4]) [µg/mL] | MIC P. aeruginosa CCUG 59347 (P. aeruginosa CCUG 59347; [4]) [µg/mL] | MIC K. pneumoniae CA64 (K. pneumoniae CA64; [4]) [µg/mL] | other results |
| --- | --- | --- | --- | --- | --- | --- | --- | --- | --- | --- | --- | --- | --- | --- | --- | --- |
| 0.5 (≈ 0.453 µM) | 0.25 (≈ 0.226 µM) | 0.06 (≈ 0.0543 µM) | 0.06 (≈ 0.0543 µM) | 0.03 (≈ 0.0272 µM) | 353000 | 8 (≈ 7.24 µM) | 0.5 (≈ 0.453 µM) | 8 (≈ 7.24 µM) | CC[C@@H]1NC(=O)[C@@H](CC(C)C)NC(=O)[C@H](CCN)NC(=O)[C@@H](NC(=O)[C@H](CN)NC(=O)[C@@H](NC(=O)C[C@H](CN)c2cccc(CC(C)C)c2)[C@@H](C)O)CCNC(=O)[C@H]([C@@H](C)O)NC(=O)[C@H](CCN)NC(=O)[C@H](CCN)NC1=O [Example 26, (S)-4-amino-3-(3- isobutylphenyl)butanoyl- Thr-Dap- Cyclo[Dab-Dab-DLeu- Abu-Dab-Dab-Thr]] (X6-T[Dap][Dab][Dab][dL][Abu][Dab][Dab]T; lactam 3-C) | >58 |  |  |  |  |  |  |
| 0.5 (≈ 0.431 µM) | 0.25 (≈ 0.216 µM) | 0.5 (≈ 0.431 µM) | 0.5 (≈ 0.431 µM) | 0.25 (≈ 0.216 µM) | 163000 | 4 (≈ 3.45 µM) | 0.5 (≈ 0.431 µM) | 16 (≈ 13.8 µM) | CC(C)C[C@@H]1NC(=O)[C@@H](Cc2ccccc2)NC(=O)[C@H](CCN)NC(=O)[C@@H](NC(=O)[C@H](CN)NC(=O)[C@@H](NC(=O)C[C@H](CN)Cc2cccc(Cl)c2)[C@@H](C)O)CCNC(=O)[C@H]([C@@H](C)O)NC(=O)[C@H](CCN)NC(=O)[C@H](CCN)NC1=O [Example 11, (R)-4-amino-3-(3- chlorobenzyl)butanoyl- Thr-Dap-Cyclo[Dab- Dab-DPhe-Leu-Dab- Dab-Thr]. Isomer 1] (X8-T[Dap][Dab][Dab][dF]L[Dab][Dab]T; lactam 3-C) | 5.2 |  |  |  |  |  |  |
| 0.25 (≈ 0.226 µM) | 0.25 (≈ 0.226 µM) | 0.25 (≈ 0.226 µM) | 0.25 (≈ 0.226 µM) | 0.25 (≈ 0.226 µM) | 386000 | 32 (≈ 28.9 µM) | 1 (≈ 0.904 µM) | 64 (≈ 57.8 µM) | CC(C)C[C@H]1NC(=O)[C@H](CCN)NC(=O)[C@@H](NC(=O)[C@H](CN)NC(=O)[C@@H](NC(=O)C[C@H](CN)c2cccc(C(C)C)c2)[C@@H](C)O)CCNC(=O)[C@H]([C@@H](C)O)NC(=O)[C@H](CCN)NC(=O)[C@H](CCN)NC(=O)[C@H]([C@@H](C)O)NC1=O [Example 19, (S)-4-amino-3-(3- isopropylphenyl) butanoyl-Thr-Dap- Cyclo[Dab-Dab-DLeu- Thr-Dab-Dab-Thr]] (X3-T[Dap][Dab][Dab][dL]T[Dab][Dab]T; lactam 3-C) | 101.4 |  |  |  |  |  |  |

The remaining lines, values behind:

| SMILES | MIC K. pneumoniae ATCC 13822 (K. pneumoniae ATCC 13822; ATCC 13822) [µg/mL] | MIC P. aeruginosa ATCC 27853 (P. aeruginosa ATCC 27853; ATCC 27853) [µg/mL] | MIC E. coli ATCC 25922 (E. coli ATCC 25922; ATCC 25922) [µg/mL] | MIC A. baumannii ATCC BAA-747 ([1]; ATCC BAA-747) [µg/mL] | MIC A. baumannii NCTC 13424 (A. baumannii NCTC 13424; NCTC 13424) [µg/mL] | tissue level at time at 4 h ([2]; sc, 17.2 mg/kg) [ng/g] | MIC E. coli CA58 (E. coli CA58; CA58) [µg/mL] | MIC P. aeruginosa CCUG 59347 (P. aeruginosa CCUG 59347; CCUG 59347) [µg/mL] | MIC K. pneumoniae CA64 (K. pneumoniae CA64; CA64) [µg/mL] | HK-2 rel to PMB (HK-2 cells) | MIC A. baumannii ATCC BAA-747 [1, 4] [µg/mL] | MIC A. baumannii NCTC 13424 (A. baumannii NCTC 13424; [4]) [µg/mL] | MIC E. coli CA58 (E. coli CA58; [4]) [µg/mL] | MIC P. aeruginosa CCUG 59347 (P. aeruginosa CCUG 59347; [4]) [µg/mL] | MIC K. pneumoniae CA64 (K. pneumoniae CA64; [4]) [µg/mL] | other results |
| --- | --- | --- | --- | --- | --- | --- | --- | --- | --- | --- | --- | --- | --- | --- | --- | --- |
| CC[C@@H]1NC(=O)[C@@H](Cc2ccccc2)NC(=O)[C@H](CCN)NC(=O)[C@@H](NC(=O)[C@H](CN)NC(=O)[C@@H](NC(=O)C[C@H](CN)c2cccc(C(C)C)c2)[C@@H](C)O)CCNC(=O)[C@H]([C@@H](C)O)NC(=O)[C@H](CCN)NC(=O)[C@H](CCN)NC1=O [Example 17] (X3-T[Dap][Dab][Dab][dF][Abu][Dab][Dab]T; lactam 3-C) |  |  |  |  |  |  |  |  |  |  | 0.06 (≈ 0.0534 µM) | 0.06 (≈ 0.0534 µM) | 8 (≈ 7.12 µM) | 0.25 (≈ 0.222 µM) | 16 (≈ 14.2 µM) | tissue level at time at 4 h ([2]; mice, 17.2 mg/kg free base sc, 4 h, read-out: 4 hr kidney level): 231000 ng/g; Basophilic tubules (histopathology) ([3]; animals per grade): 3 normal/2 minimal; Tubular degeneration/necrosis (histopathology) ([3]; animals per grade): All normal; Albumin, elevation compared with vehicle control ([3]; urine): 2.7×; Cystatin C, elevation compared with vehicle control ([3]; urine): 1.8×; KIM-1, elevation compared with vehicle control ([3]; urine): 4.7×; HK-2 rel to PMB (HK-2 cells; IC50 relative to PMB in the same experiment, 24 h): 29.0 |
| CC(C)C[C@@H]1NC(=O)[C@@H](Cc2ccccc2)NC(=O)[C@H](CCN)NC(=O)[C@@H](NC(=O)[C@H](CN)NC(=O)[C@@H](NC(=O)C[C@@H](CN)c2ccc(Cl)cc2)[C@@H](C)O)CCNC(=O)[C@H]([C@@H](C)O)NC(=O)[C@H](CCN)NC(=O)[C@H](CCN)NC1=O [Example 2, (R)-4-amino-3-(4- chlorophenyl)butanoyl- Thr-Dap-Cyclo[Dab- Dab-DPhe-Leu-Dab- Dab-Thr]] (X5-T[Dap][Dab][Dab][dF]L[Dab][Dab]T; lactam 3-C) | 0.25 (≈ 0.218 µM) | 0.25 (≈ 0.218 µM) | 0.25 (≈ 0.218 µM) | 0.25 (≈ 0.218 µM) | 0.25 (≈ 0.218 µM) | 538000 | 8 (≈ 6.99 µM) | 0.5 (≈ 0.437 µM) | 2 (≈ 1.75 µM) | 7.2 |  |  |  |  |  | 4 hr kidney level/rel. cytotoxicity [2]: 75 |
| CC(C)C[C@H]1NC(=O)[C@H](CCN)NC(=O)[C@@H](NC(=O)[C@H](CN)NC(=O)[C@@H](NC(=O)C[C@@H](CN)c2cccc(C(C)C)c2)[C@@H](C)O)CCNC(=O)[C@H]([C@@H](C)O)NC(=O)[C@H](CCN)NC(=O)[C@H](CCN)NC(=O)[C@H]([C@@H](C)O)NC1=O [Example 20, (R)-4-amino-3-(3- isopropylphenyl) butanoyl-Thr-Dap- Cyclo[Dab-Dab-DLeu- Thr-Dab-Dab-Thr]] (X9-T[Dap][Dab][Dab][dL]T[Dab][Dab]T; lactam 3-C) |  |  |  |  |  |  |  |  |  |  | 2 (≈ 1.81 µM) | 1 (≈ 0.904 µM) | 64 (≈ 57.8 µM) | 2 (≈ 1.81 µM) | 64 (≈ 57.8 µM) | MIC K. pneumoniae ATCC 13822 (K. pneumoniae ATCC 13822; [4]): 2 µg/mL (≈ 1.81 µM); MIC P. aeruginosa ATCC 27853 (P. aeruginosa ATCC 27853; [4]): 0.5 µg/mL (≈ 0.452 µM); MIC E. coli ATCC 25922 (E. coli ATCC 25922; [4]): 1 µg/mL (≈ 0.904 µM) |
| CC(C)C[C@@H]1NC(=O)[C@@H](CC(C)C)NC(=O)[C@H](CCN)NC(=O)[C@@H](NC(=O)[C@H](CN)NC(=O)[C@@H](NC(=O)C[C@@H](CN)c2cccc(C(C)C)c2)[C@@H](C)O)CCNC(=O)[C@H]([C@@H](C)O)NC(=O)[C@H](CCN)NC(=O)[C@H](CCN)NC1=O [Example 16, (R)-4-amino-3-(3- isopropylphenyl) butanoyl-Thr-Dap- Cyclo[Dab-Dab-DLeu- Leu-Dab-Dab-Thr]] (X9-T[Dap][Dab][Dab][dL]L[Dab][Dab]T; lactam 3-C) |  |  |  |  |  |  |  |  |  |  | 0.5 (≈ 0.447 µM) | 0.5 (≈ 0.447 µM) | 16 (≈ 14.3 µM) | 1 (≈ 0.894 µM) | 8 (≈ 7.15 µM) | MIC K. pneumoniae ATCC 13822 (K. pneumoniae ATCC 13822; [4]): 0.25 µg/mL (≈ 0.224 µM); MIC P. aeruginosa ATCC 27853 (P. aeruginosa ATCC 27853; [4]): 0.5 µg/mL (≈ 0.447 µM); MIC E. coli ATCC 25922 (E. coli ATCC 25922; [4]): 0.5 µg/mL (≈ 0.447 µM) |
